Data published in the supplement of paper PMC10307832.

Legend:
Experiment in all cases: relative viability (nuclei count vs DMSO), 5 days (fraction); higher = more cells survive
Ruxolitinib + Foretinib = compound: N#CC[C@H](C1CCCC1)n1cc(-c2ncnc3[nH]ccc23)cn1 [Ruxolitinib] + COc1cc2c(Oc3ccc(NC(=O)C4(C(=O)Nc5ccc(F)cc5)CC4)cc3F)ccnc2cc1OCCCN1CCOCC1 [Foretinib] (partner 0.25 µM)
Summary of the method: (§1)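 Relative viability equals treated-well nuclei counts divided by vehicle-well nuclei counts. Counts came from 4× images of lung cancer cell lines grown in 1536-well plates for 5 days after pin-tool dosing on the day after seeding. Dosing used one drug alone or a fixed anchor-drug dose plus five library-drug doses (not always all listed) in √10 steps, and values are medians of duplicate plates.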

VE-821 + Linsitinib = compound: CS(=O)(=O)c1ccc(-c2cnc(N)c(C(=O)Nc3ccccc3)n2)cc1 [VE-821] + C[C@]1(O)C[C@@H](c2nc(-c3ccc4ccc(-c5ccccc5)nc4c3)c3c(N)nccn32)C1 [Linsitinib] (partner 1 µM)
Summary of the method: as §1

Ruxolitinib + Alpelisib = compound: N#CC[C@H](C1CCCC1)n1cc(-c2ncnc3[nH]ccc23)cn1 [Ruxolitinib] + Cc1nc(NC(=O)N2CCC[C@H]2C(N)=O)sc1-c1ccnc(C(C)(C)C(F)(F)F)c1 [Alpelisib] (partner 2 µM)
Summary of the method: as §1

Vismodegib + Navitoclax = compound: CS(=O)(=O)c1ccc(C(=O)Nc2ccc(Cl)c(-c3ccccn3)c2)c(Cl)c1 [Vismodegib] + CC1(C)CCC(c2ccc(Cl)cc2)=C(CN2CCN(c3ccc(C(=O)NS(=O)(=O)c4ccc(N[C@H](CCN5CCOCC5)CSc5ccccc5)c(S(=O)(=O)C(F)(F)F)c4)cc3)CC2)C1 [Navitoclax] (partner 0.5 µM)
Summary of the method: as §1

Cell Line	relative viability (Ruxolitinib + Foretinib; first compound 0.08 µM)	relative viability (Ruxolitinib + Foretinib; first compound 0.253 µM)	relative viability (Ruxolitinib + Foretinib; first compound 0.8 µM)	relative viability (Ruxolitinib + Foretinib; first compound 2.53 µM)	relative viability (Ruxolitinib + Foretinib; first compound 8 µM)	relative viability (VE-821 + Linsitinib; first compound 0.08 µM)	relative viability (VE-821 + Linsitinib; first compound 0.253 µM)	relative viability (VE-821 + Linsitinib; first compound 0.8 µM)	relative viability (VE-821 + Linsitinib; first compound 2.53 µM)	relative viability (VE-821 + Linsitinib; first compound 8 µM)	relative viability (Ruxolitinib + Alpelisib; first compound 0.08 µM)	relative viability (Ruxolitinib + Alpelisib; first compound 0.253 µM)	relative viability (Ruxolitinib + Alpelisib; first compound 0.8 µM)	relative viability (Ruxolitinib + Alpelisib; first compound 2.53 µM)	relative viability (Ruxolitinib + Alpelisib; first compound 8 µM)	relative viability (Vismodegib + Navitoclax; first compound 0.08 µM)	relative viability (Vismodegib + Navitoclax; first compound 0.253 µM)	relative viability (Vismodegib + Navitoclax; first compound 0.8 µM)	relative viability (Vismodegib + Navitoclax; first compound 2.53 µM)	relative viability (Vismodegib + Navitoclax; first compound 8 µM)
SW 900	0.88	0.806	1.01	0.912	1.11	–	–	–	–	–	–	–	–	–	–	–	–	–	–	–
NCI-H358	0.531	0.692	0.638	0.619	0.558	0.812	0.777	0.723	1.09	0.469	0.787	0.913	0.867	0.65	0.554	–	–	–	–	–
ChaGo-K-1	0.956	0.934	0.898	0.772	0.823	–	–	–	–	–	–	–	–	–	–	0.994	1.14	0.956	0.977	0.986
NCI-H1755	0.946	0.892	0.91	0.852	0.755	1.05	0.978	0.795	0.958	0.898	0.885	0.904	0.97	0.796	0.623	0.961	0.957	1.04	0.934	0.985
LCLC-103H	0.808	0.672	0.881	0.71	0.661	1.23	1.1	0.999	1.34	1.1	1.02	0.875	1.08	1.03	1.02	–	–	–	–	–
HCC-827	–	0.764	0.755	0.918	0.811	0.932	1.01	0.909	0.934	0.976	–	0.679	0.72	0.794	0.887	1.03	1.04	0.961	1.03	1.02
HCC-44	–	–	–	–	–	0.72	0.685	0.485	0.81	0.769	0.793	0.724	0.796	0.602	0.41	1.05	0.893	1.05	0.989	0.87
NCI-H727	1.21	0.976	1.3	0.873	1.03	0.31	0.337	0.251	0.335	0.22	0.604	0.597	0.874	0.749	0.338	0.496	0.428	0.453	0.36	0.386
NCI-H1563	0.994	0.976	0.997	0.852	0.94	1.26	1.17	0.914	1.08	1.05	0.923	0.813	1	0.895	0.818	–	–	–	–	–
NCI-H1650	–	1.25	1.29	1.27	1.13	–	–	–	–	–	–	–	–	–	–	1.14	1.27	1.2	1.17	1.14
COR-L 105	0.927	1.17	0.994	0.718	0.853	0.944	0.885	0.75	0.776	0.496	0.771	1.03	0.84	0.86	0.718	0.733	0.721	1.02	0.777	0.781
COR-L23	0.944	0.988	1.07	1	0.772	0.958	0.897	1.16	0.964	0.719	0.854	0.827	0.821	0.731	0.502	1.02	1.03	0.959	0.951	1.14
NCI-H596	0.907	0.848	0.888	0.947	0.804	1.1	1.18	1.03	1.15	0.94	0.521	0.567	0.559	0.531	0.547	0.95	1.01	0.848	0.882	0.904
NCI-H322M	0.964	0.99	1.18	1.22	1.43	0.933	–	1	0.93	0.771	0.901	0.844	0.873	0.802	1.01	1.19	1.3	1.14	1.23	1.07
H3255	0.747	0.91	0.968	0.95	0.836	1.08	1.05	0.914	1.06	0.982	–	0.599	0.749	0.521	0.608	0.614	0.441	0.462	0.439	0.518
PC-14	–	0.947	0.971	0.875	0.828	1.02	0.911	0.95	1.02	0.971	–	0.868	0.902	0.879	0.78	0.967	0.974	1.1	0.946	0.965
A549	0.926	0.926	1.08	0.834	0.632	0.623	0.597	0.43	0.599	0.406	0.775	0.708	0.841	0.574	0.495	1.02	1.13	1.28	1.18	1.23

Cell Line	relative viability (Ruxolitinib + Foretinib; first compound 0.08 µM)	relative viability (Ruxolitinib + Foretinib; first compound 0.253 µM)	relative viability (Ruxolitinib + Foretinib; first compound 0.8 µM)	relative viability (Ruxolitinib + Foretinib; first compound 2.53 µM)	relative viability (Ruxolitinib + Foretinib; first compound 8 µM)	relative viability (VE-821 + Linsitinib; first compound 0.08 µM)	relative viability (VE-821 + Linsitinib; first compound 0.253 µM)	relative viability (VE-821 + Linsitinib; first compound 0.8 µM)	relative viability (VE-821 + Linsitinib; first compound 2.53 µM)	relative viability (VE-821 + Linsitinib; first compound 8 µM)	relative viability (Ruxolitinib + Alpelisib; first compound 0.08 µM)	relative viability (Ruxolitinib + Alpelisib; first compound 0.253 µM)	relative viability (Ruxolitinib + Alpelisib; first compound 0.8 µM)	relative viability (Ruxolitinib + Alpelisib; first compound 2.53 µM)	relative viability (Ruxolitinib + Alpelisib; first compound 8 µM)	relative viability (Vismodegib + Navitoclax; first compound 0.08 µM)	relative viability (Vismodegib + Navitoclax; first compound 0.253 µM)	relative viability (Vismodegib + Navitoclax; first compound 0.8 µM)	relative viability (Vismodegib + Navitoclax; first compound 2.53 µM)	relative viability (Vismodegib + Navitoclax; first compound 8 µM)
NCI-H2342	1.07	0.936	1.17	1.07	1.11	–	–	–	–	–	–	–	–	–	–	–	–	–	–	–
NCI-H1623	0.908	0.94	0.971	1.01	0.994	–	–	–	–	–	–	–	–	–	–	–	–	–	–	–
NCI-H520	0.703	–	0.853	0.753	0.885	1.09	0.931	–	1.03	0.755	–	0.837	1.04	0.988	0.756	1.06	1.12	0.941	1.12	1.09
NCI-H2405	–	1.06	1.17	1.08	0.875	0.881	0.943	0.724	1.09	0.693	–	0.715	0.984	0.416	0.465	–	0.93	0.86	0.712	0.904
PC-3 [JPC-3]	0.859	1.01	0.975	0.957	0.871	0.923	0.932	1.05	1.07	1.01	0.763	1.05	1.1	0.991	0.932	0.758	0.789	0.769	0.768	0.778
EBC-1	0.0875	0.0905	0.116	0.115	0.0903	0.908	0.901	0.85	1.16	0.808	0.833	0.889	0.997	0.876	0.777	0.412	0.39	0.436	0.397	0.643
NCI-H2347	–	0.84	0.856	0.769	1.06	1.02	1.05	1.07	1.21	1.06	0.949	0.999	1.17	0.984	1.19	0.735	0.821	0.766	0.763	0.792
LXF-289	0.902	0.957	0.97	0.91	0.871	0.992	0.945	1.06	1.1	1.07	1.01	1	1.04	0.948	0.815	0.919	0.931	0.935	0.917	0.917
HCC-78	0.501	0.568	0.599	0.554	0.515	0.626	0.575	0.404	0.477	0.328	0.289	0.249	0.308	0.277	0.337	0.703	0.759	0.638	0.707	0.78
HCC-366	0.934	0.855	1.07	0.915	0.744	0.907	0.49	0.329	0.477	0.0616	0.349	0.322	0.366	0.36	0.46	0.991	0.98	0.974	1.1	1.09
NCI-H2023	0.682	0.897	0.947	0.978	1.32	0.779	0.642	0.329	0.539	0.225	0.617	0.56	0.595	0.489	0.6	0.937	1.09	1.08	0.995	0.96
NCI-H1792	–	–	–	–	–	0.55	0.711	0.438	0.553	0.421	0.652	0.687	0.651	0.515	0.714	0.634	0.655	0.588	0.616	0.619
NCI-H650	–	1	1.14	0.917	0.678	0.959	0.843	0.863	0.949	0.714	–	1.33	1.23	0.964	0.667	–	–	–	–	–
ABC-1	–	1.35	1.33	0.975	0.99	0.819	0.699	0.567	0.798	0.423	1.08	1.09	1.17	1.03	0.855	–	–	–	–	–
NCI-H2170	0.992	0.609	0.602	0.951	0.943	–	–	–	–	–	0.891	0.857	0.753	0.821	0.737	0.683	0.602	0.755	0.473	0.617
NCI-H661	0.92	1.05	1.08	0.94	0.926	0.539	0.568	0.481	0.493	0.4	0.406	0.623	0.579	0.583	0.252	–	–	–	–	–
